target: active HPK1 (SignalChem M23-11G) (Homo sapiens (Human), UniProt Q92918); assay: HPK1 Kinase Binding Assay; conditions: LanthaScreen tracer 222 / Eu-Anti GST antibody, one hour incubation at 25° C.
Experimental: A stock solution of 1 mM test compound was prepared in DMSO. The compound plate was prepared by 3-fold and 11-point serial dilutions. 0.1 μL of the compound in DMSO was transferred from the compound plate to the white 384 well polystyrene plates. The assay buffer contained 50 mM HEPES, pH 7.5, 0.01% Tween-20, 5 mM MgCl2, 0.01% BSA, and 5 mM DTT. 5 μL of 4 nM active HPK1 (SignalChem M23-11G) prepared in the buffer was added to the plate. The enzyme concentration given was based on the given stock concentration reported by the vender. 5 μl of 18 nM tracer 222 (ThermoFisher PV6121) and 4 nM LanthaScreen Eu-Anti GST antibody (ThermoFisher PV5595) were added. After one hour incubation at 25° C., the plates were read on a PHERAstar FS plate reader (BMG Labtech). Ki values were determined.

active HPK1 (SignalChem M23-11G), sequence (Q92918 1-346 limits assumed): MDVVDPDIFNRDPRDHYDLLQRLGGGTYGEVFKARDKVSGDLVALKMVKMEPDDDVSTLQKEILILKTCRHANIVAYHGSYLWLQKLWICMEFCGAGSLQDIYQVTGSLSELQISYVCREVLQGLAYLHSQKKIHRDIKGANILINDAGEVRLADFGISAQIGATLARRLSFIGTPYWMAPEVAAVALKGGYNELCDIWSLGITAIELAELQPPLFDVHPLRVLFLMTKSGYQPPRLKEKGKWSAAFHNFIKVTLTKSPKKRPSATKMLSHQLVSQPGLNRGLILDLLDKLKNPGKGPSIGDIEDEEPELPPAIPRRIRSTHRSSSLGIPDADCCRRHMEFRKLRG

| Ki [nM] | Compound |
| --- | --- |
| ≤ 100 | COc1cccc(F)c1-c1nccc(C(=O)Nc2ccc3c(nc(C4CCOCC4)n3C)c2N2CCC[C@H]2CN)n1 [Example 20, (S)—N-(4-(2-(Aminomethyl)pyrrolidin-1-yl)-1-methyl-2-(tetrahydro-2H-pyran-4-yl)-1H-benzo[d]imidazol-5-yl)-2-(2-fluoro-6-methoxyphenyl)pyrimidine-4-carboxamide] |
| ≤ 100 | COCCn1c(C)nc2c(N3CCC[C@H]3CN)c(NC(=O)c3ccnc(-c4c(F)cccc4OC)n3)ccc21 [Example 21, (S)—N-(4-(2-(Aminomethyl)pyrrolidin-1-yl)-1-(2-methoxyethyl)-2-methyl-1H-benzo[d]imidazol-5-yl)-2-(2-fluoro-6-methoxyphenyl)pyrimidine-4-carboxamide] |
| ≤ 100 | COC[C@@H](C)n1c(C)nc2c(N3CCC[C@H]3CN)c(NC(=O)c3ccnc(-c4c(F)cccc4OC)n3)ccc21 [Example 22, N-(4-((S)-2-(Aminomethyl)pyrrolidin-1-yl)-1-((R)-1-methoxypropan-2-yl)-2-methyl-1H-benzo[d]imidazol-5-yl)-2-(2-fluoro-6-methoxyphenyl)pyrimidine-4-carboxamide] |
| ≤ 100 | COc1cccc(F)c1-c1nccc(C(=O)Nc2ccc3c(nc(C)n3CC(C)(C)OC)c2N2CCC[C@H]2CN)n1 [Example 23, (S)—N-(4-(2-(Aminomethyl)pyrrolidin-1-yl)-1-(2-methoxy-2-methylpropyl)-2-methyl-1H-benzo[d]imidazol-5-yl)-2-(2-fluoro-6-methoxyphenyl)pyrimidine-4-carboxamide] |
| ≤ 100 | COc1cccc(F)c1-c1nccc(C(=O)Nc2ccc3c(nc(C)n3[C@H]3CCOC3)c2N2CCC[C@H]2CN)n1 [Example 24, N-(4-((S)-2-(Aminomethyl)pyrrolidin-1-yl)-2-methyl-1-((S)-tetrahydrofuran-3-yl)-1H-benzo[d]imidazol-5-yl)-2-(2-fluoro-6-methoxyphenyl)pyrimidine-4-carboxamide] |
| ≤ 100 | COCc1nc2c(N3CCC[C@H]3CN)c(NC(=O)c3ccnc(-c4c(F)cccc4OC)n3)ccc2n1C [Example 25, (S)—N-(4-(2-(Aminomethyl)pyrrolidin-1-yl)-2-(methoxymethyl)-1-methyl-1H-benzo[d]imidazol-5-yl)-2-(2-fluoro-6-methoxyphenyl)pyrimidine-4-carboxamide] |
| ≤ 100 | COCCc1nc2c(N3CCC[C@H]3CN)c(NC(=O)c3ccnc(-c4c(F)cccc4OC)n3)ccc2n1C [Example 26, (S)—N-(4-(2-(Aminomethyl)pyrrolidin-1-yl)-2-(2-methoxyethyl)-1-methyl-1H-benzo[d]imidazol-5-yl)-2-(2-fluoro-6-methoxyphenyl)pyrimidine-4-carboxamide] |
| ≤ 100 | COc1cccc(F)c1-c1nccc(C(=O)Nc2ccc3c(ncn3[C@@H]3CCOC3)c2N2CCC[C@H]2CN)n1 [Example 27, N-(4-((S)-2-(Aminomethyl)pyrrolidin-1-yl)-1-((R)-tetrahydrofuran-3-yl)-1H-benzo[d]imidazol-5-yl)-2-(2-fluoro-6-methoxyphenyl)pyrimidine-4-carboxamide] |
| ≤ 100 | COc1cccc(F)c1-c1nccc(C(=O)Nc2ccc3c(ncn3C)c2N2CCC[C@H]2CN)n1 [Example 28, (S)—N-(4-(2-(Aminomethyl)pyrrolidin-1-yl)-1-methyl-1H-benzo[d]imidazol-5-yl)-2-(2-fluoro-6-methoxyphenyl)pyrimidine-4-carboxamide] |
| ≤ 100 | COc1cccc(F)c1-c1nccc(C(=O)Nc2ccc3c(nc(C)n3Cc3ccncc3)c2N2CC[C@H](N)C2)n1 [Example 29, (S)—N-(4-(3-Aminopyrrolidin-1-yl)-2-methyl-1-(pyridin-4-ylmethyl)-1H-benzo[d]imidazol-5-yl)-2-(2-fluoro-6-methoxyphenyl)pyrimidine-4-carboxamide] |
| ≤ 100 | COc1cccc(F)c1-c1nccc(C(=O)Nc2ccc3c(nc(C)n3Cc3cnn(C)c3)c2N2CC[C@H](N)C2)n1 [Example 30, (S)—N-(4-(3-Aminopyrrolidin-1-yl)-2-methyl-1-((1-methyl-1H-pyrazol-4-yl)methyl)-1H-benzo[d]imidazol-5-yl)-2-(2-fluoro-6-methoxyphenyl)pyrimidine-4-carboxamide] |
| ≤ 100 | COc1cccc(F)c1-c1nccc(C(=O)Nc2ccc3c(nc(C)n3C)c2-c2ccccc2N)n1 [Example 31, N-(4-(2-Aminophenyl)-1,2-dimethyl-1H-benzo[d]imidazol-5-yl)-2-(2-fluoro-6-methoxyphenyl)pyrimidine-4-carboxamide] |
| ≤ 100 | Cc1nc2c(N3CCC[C@H]3CN)c(NC(=O)c3ccnc(-c4c(F)cccc4F)n3)ccc2n1C [Example 32, (S)—N-(4-(2-(Aminomethyl)pyrrolidin-1-yl)-1,2-dimethyl-1H-benzo[d]imidazol-5-yl)-2-(2,6-difluorophenyl)pyrimidine-4-carboxamide] |
| ≤ 100 | Cc1cccc(F)c1-c1nccc(C(=O)Nc2ccc3c(nc(C)n3C)c2N2CCC[C@H]2CN)n1 [Example 33, (S)—N-(4-(2-(Aminomethyl)pyrrolidin-1-yl)-1,2-dimethyl-1H-benzo[d]imidazol-5-yl)-2-(2-fluoro-6-methylphenyl)pyrimidine-4-carboxamide] |
| ≤ 100 | COc1cccc(F)c1-c1nc(C(=O)Nc2ccc3c(nc(C)n3C)c2N2CCC[C@H]2CN)ccc1F [Example 34, N-(4-((S)-2-(Aminomethyl)pyrrolidin-1-yl)-1,2-dimethyl-1H-benzo[d]imidazol-5-yl)-5-fluoro-6-(2-fluoro-6-methoxyphenyl)picolinamide] |
| ≤ 100 | COc1cccc(F)c1-c1nccc(C(=O)Nc2ccc3c(ccn3C)c2N2CCC[C@@H]2CN)n1 [Example 35, (R)—N-(4-(2-(Aminomethyl)pyrrolidin-1-yl)-1-methyl-1H-indol-5-yl)-2-(2-fluoro-6-methoxyphenyl)pyrimidine-4-carboxamide] |
| ≤ 100 | COc1cccc(F)c1-c1nccc(C(=O)Nc2ccc3c(ccn3C)c2N2C[C@@H](N)C[C@H]2CO)n1 [Example 36, N-(4-((2S,4S)-4-Amino-2-(hydroxymethyl)pyrrolidin-1-yl)-1-methyl-1H-indol-5-yl)-2-(2-fluoro-6-methoxyphenyl)pyrimidine-4-carboxamide] |
| ≤ 100 | COc1cccc(F)c1-c1nccc(C(=O)Nc2ccc3c(ccn3C)c2N2CCNC[C@H]2C)n1 [Example 37, (R)-2-(2-Fluoro-6-methoxyphenyl)-N-(1-methyl-4-(2-methylpiperazin-1-yl)-1H-indol-5-yl)pyrimidine-4-carboxamide] |
| ≤ 100 | COc1cccc(F)c1-c1nccc(C(=O)Nc2ccc3c(ccn3C)c2N2C[C@@H]3C[C@H]2CN3)n1 [Example 38, N-(4-((1S,4S)-2,5-Diazabicyclo[2.2.1]heptan-2-yl)-1-methyl-1H-indol-5-yl)-2-(2-fluoro-6-methoxyphenyl)pyrimidine-4-carboxamide] |
| ≤ 100 | COc1cccc(F)c1-c1nccc(C(=O)Nc2ccc3c(ccn3Cc3ccncc3)c2N2C[C@@H]3C[C@H]2CN3)n1 [Example 39, N-(4-((1S,4S)-2,5-Diazabicyclo[2.2.1]heptan-2-yl)-1-(pyridin-4-ylmethyl)-1H-indol-5-yl)-2-(2-fluoro-6-methoxyphenyl)pyrimidine-4-carboxamide] |
| ≤ 100 | COc1cccc(F)c1-c1nccc(C(=O)Nc2ccc3[nH]ccc3c2N2C[C@@H]3C[C@H]2CN3)n1 [Example 40, N-(4-((1S,4S)-2,5-Diazabicyclo[2.2.1]heptan-2-yl)-1H-indol-5-yl)-2-(2-fluoro-6-methoxyphenyl)pyrimidine-4-carboxamide] |
| ≤ 100 | COc1cccc(F)c1-c1nccc(C(=O)Nc2ccc3c(ccn3CC3CCCCO3)c2N2C[C@@H]3C[C@H]2CN3)n1 (stereo partly drawn) [Example 41, N-(4-((1S,4S)-2,5-Diazabicyclo[2.2.1]heptan-2-yl)-1-((tetrahydro-2H-pyran-2-yl)methyl)-1H-indol-5-yl)-2-(2-fluoro-6-methoxyphenyl)pyrimidine-4-carboxamide] |
| ≤ 100 | COc1cccc(F)c1-c1nccc(C(=O)Nc2ccc3c(ccn3Cc3cnc(C)s3)c2N2C[C@@H]3C[C@H]2CN3)n1 [Example 42, N-(4-((1S,4S)-2,5-Diazabicyclo[2.2.1]heptan-2-yl)-1-((2-methylthiazol-5-yl)methyl)-1H-indol-5-yl)-2-(2-fluoro-6-methoxyphenyl)pyrimidine-4-carboxamide] |
| ≤ 100 | COc1cccc(F)c1-c1nccc(C(=O)Nc2ccc3c(ccn3CCN3CCOCC3)c2N2C[C@@H]3C[C@H]2CN3)n1 [Example 43, N-(4-((1S,4S)-2,5-Diazabicyclo[2.2.1]heptan-2-yl)-1-(2-morpholinoethyl)-1H-indol-5-yl)-2-(2-fluoro-6-methoxyphenyl)pyrimidine-4-carboxamide] |
| ≤ 100 | COc1cc(-n2ccc3c(N4C[C@@H]5C[C@H]4CN5)c(NC(=O)c4ccnc(-c5c(F)cccc5OC)n4)ccc32)ccn1 [Example 44, N-(4-((1S,4S)-2,5-Diazabicyclo[2.2.1]heptan-2-yl)-1-(2-methoxypyridin-4-yl)-1H-indol-5-yl)-2-(2-fluoro-6-methoxyphenyl)pyrimidine-4-carboxamide] |
| ≤ 100 | COc1ccc(-n2ccc3c(N4C[C@@H](N)C[C@H]4CO)c(NC(=O)c4ccnc(-c5c(F)cccc5OC)n4)ccc32)c(F)c1 [Example 45, N-(4-((2S,4S)-4-Amino-2-(hydroxymethyl)pyrrolidin-1-yl)-1-(2-fluoro-4-methoxyphenyl)-1H-indol-5-yl)-2-(2-fluoro-6-methoxyphenyl)pyrimidine-4-carboxamide] |
